Values quoted from earlier work, collected in patent US7884091B2, “Methods for treating delirium using glucocorticoid receptor-specific antagonists” (Corcept Therapeutics, Inc., priority 2001, dated 2011).

Conditions: in one study; Kawai (1989) supra

## CC#C[C@]1(O)CC[C@H]2[C@@H]3CCC4=CC(=O)CCC4=C3[C@@H](c3ccc(N(C)C)cc3)C[C@@]21C [mifepristone, 17-beta-hydroxy-11-beta-(4-dimethyl-aminophenyl)-17-alpha-(1-propynyl)-estra-4,9-dien-3-one]
  daily dose excreted in the urine: less than 0.5%
